# Laboratory results as given in PubChem BioAssay (NCI).
#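 Each compound was tested at five concentrations against cells in 96-well plates for 48 hours. GI50 = concentration required for 50% inhibition of growth. Definition used: TGI = concentration required for complete inhibition of growth.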
# How the values were obtained:
# Assay in all cases: NCI anticancer screen, dose series, 48 h
# [1] = tested on: 786-0 renal
# [2] = tested on: A498 renal
# [3] = tested on: ACHN renal
# [4] = tested on: BT-549 breast
# [5] = tested on: CAKI-1 renal
# [6] = tested on: CCRF-CEM leukemia
# [7] = tested on: COLO 205 colon
# [8] = tested on: DU-145 prostate
# [9] = tested on: EKVX NSCLC
# [10] = tested on: HCC-2998 colon
# [11] = tested on: HCT-116 colon
# [12] = tested on: HCT-15 colon
# [13] = tested on: HL-60(TB) leukemia
# [14] = tested on: HOP-62 NSCLC
# [15] = tested on: HOP-92 NSCLC
# [16] = tested on: HS 578T breast
# [17] = tested on: HT29 colon
# [18] = tested on: IGROV1 ovarian
# [19] = tested on: K-562 leukemia
# [20] = tested on: KM12 colon
# [21] = tested on: LOX IMVI melanoma
# [22] = tested on: M14 melanoma
# [23] = tested on: MCF7 breast
# [24] = tested on: MDA-MB-231 breast
# [25] = tested on: MDA-MB-435
# [26] = tested on: MOLT-4 leukemia
# [27] = tested on: NCI-H226 lung
# [28] = tested on: NCI-H23 lung
# [29] = tested on: NCI-H460 lung
# [30] = tested on: NCI/ADR-RES ovarian
# [31] = tested on: OVCAR-4 ovarian
# [32] = tested on: OVCAR-8 ovarian
# [33] = tested on: PC-3 prostate
# [34] = tested on: RPMI-8226 leukemia
# [35] = tested on: RXF 393 renal
# [36] = tested on: SF-268 CNS
# [37] = tested on: SF-295 CNS
# [38] = tested on: SF-539 CNS
# [39] = tested on: SK-MEL-2 melanoma
# [40] = tested on: SK-MEL-28 melanoma
# [41] = tested on: SK-MEL-5 melanoma
# [42] = tested on: SK-OV-3 ovarian
# [43] = tested on: SNB-19 CNS
# [44] = tested on: SNB-75 CNS
# [45] = tested on: SR leukemia
# [46] = tested on: SW-620 colon
# [47] = tested on: T-47D breast
# [48] = tested on: TK-10 renal
# [49] = tested on: U251 CNS
# [50] = tested on: UACC-257 melanoma
# [51] = tested on: UACC-62 melanoma
# [52] = tested on: UO-31 renal
# [53] = tested on: A549 NSCLC
# [54] = tested on: MALME-3M melanoma
# [55] = tested on: NCI-H522 lung
# [56] = tested on: OVCAR-5 ovarian
# [57] = tested on: SN12C renal
compound,measurement,setting,value
O=c1[nH]c2cc(C(F)(F)F)ccc2nc1Cc1ccccc1,TGI,[1],> 100 µM
same,TGI,[2],> 100 µM
same,TGI,[3],> 100 µM
same,TGI,[4],> 100 µM
same,TGI,[5],> 100 µM
same,TGI,[6],> 100 µM
same,TGI,[7],> 100 µM
same,TGI,[8],> 100 µM
same,TGI,[9],> 100 µM
same,TGI,[10],> 100 µM
same,TGI,[11],> 100 µM
same,TGI,[12],> 100 µM
same,TGI,[13],> 100 µM
same,TGI,[14],95.9 µM
same,TGI,[15],> 100 µM
same,TGI,[16],> 100 µM
same,TGI,[17],> 100 µM
same,TGI,[18],> 100 µM
same,TGI,[19],> 100 µM
same,TGI,[20],> 100 µM
same,TGI,[21],> 100 µM
same,TGI,[22],> 100 µM
same,TGI,[23],> 100 µM
same,TGI,[24],83.6 µM
same,TGI,[25],> 100 µM
same,TGI,[26],> 100 µM
same,TGI,[27],> 100 µM
same,TGI,[28],68.8 µM
same,TGI,[29],> 100 µM
same,TGI,[30],> 100 µM
same,TGI,[31],> 100 µM
same,TGI,[32],> 100 µM
same,TGI,[33],> 100 µM
same,TGI,[34],> 100 µM
same,TGI,[35],85.8 µM
same,TGI,[36],> 100 µM
same,TGI,[37],> 100 µM
same,TGI,[38],> 100 µM
same,TGI,[39],> 100 µM
same,TGI,[40],> 100 µM
same,TGI,[41],> 100 µM
same,TGI,[42],87.4 µM
same,TGI,[43],> 100 µM
same,TGI,[44],> 100 µM
same,TGI,[45],> 100 µM
same,TGI,[46],> 100 µM
same,TGI,[47],> 100 µM
same,TGI,[48],> 100 µM
same,TGI,[49],> 100 µM
same,TGI,[50],> 100 µM
same,TGI,[51],> 100 µM
same,TGI,[52],> 100 µM
CC(=O)c1ccc(Nc2cc(-n3ccnc3)nc3ccccc23)cc1,GI50,[1],7.86 µM
same,TGI,[1],41.3 µM
same,GI50,[53],35.3 µM
same,TGI,[53],> 100 µM
same,GI50,[3],48.4 µM
same,TGI,[3],> 100 µM
same,GI50,[4],> 100 µM
same,TGI,[4],> 100 µM
same,GI50,[5],1.71 µM
same,TGI,[5],7.57 µM
same,GI50,[7],> 100 µM
same,TGI,[7],> 100 µM
same,GI50,[8],> 100 µM
same,TGI,[8],> 100 µM
same,GI50,[9],> 100 µM
same,TGI,[9],> 100 µM
same,GI50,[10],> 100 µM
same,TGI,[10],> 100 µM
same,GI50,[11],30.5 µM
same,TGI,[11],> 100 µM
same,GI50,[12],34.2 µM
same,TGI,[12],> 100 µM
same,GI50,[14],4.26 µM
same,TGI,[14],29.4 µM
same,GI50,[15],4.15 µM
same,TGI,[15],29.4 µM
same,GI50,[16],33.4 µM
same,TGI,[16],> 100 µM
same,GI50,[17],60.7 µM
same,TGI,[17],> 100 µM
same,GI50,[18],> 100 µM
same,TGI,[18],> 100 µM
same,GI50,[19],11.4 µM
same,TGI,[19],81.5 µM
same,GI50,[22],8.15 µM
same,TGI,[22],52 µM
same,GI50,[54],15.4 µM
same,TGI,[54],56.5 µM
same,GI50,[23],36 µM
same,TGI,[23],> 100 µM
same,GI50,[24],3.64 µM
same,TGI,[24],18.1 µM
same,GI50,[25],13.5 µM
same,TGI,[25],60.1 µM
same,GI50,[26],10.7 µM
same,TGI,[26],58.1 µM
same,GI50,[27],24.4 µM
same,TGI,[27],92.1 µM
same,GI50,[28],49.6 µM
same,TGI,[28],> 100 µM
same,GI50,[29],34.2 µM
same,TGI,[29],> 100 µM
same,GI50,[55],87.9 µM
same,TGI,[55],> 100 µM
same,GI50,[30],> 100 µM
same,TGI,[30],> 100 µM
same,GI50,[31],> 100 µM
same,TGI,[31],> 100 µM
same,GI50,[56],> 100 µM
same,TGI,[56],> 100 µM
same,GI50,[32],50.5 µM
same,TGI,[32],> 100 µM
same,GI50,[33],20.5 µM
same,TGI,[33],> 100 µM
same,GI50,[34],3.24 µM
same,TGI,[34],9.84 µM
same,GI50,[35],26 µM
same,TGI,[35],76.8 µM
same,GI50,[36],14.8 µM
same,TGI,[36],67.7 µM
same,GI50,[37],2.8 µM
same,TGI,[37],9.53 µM
same,GI50,[38],40.6 µM
same,TGI,[38],88.7 µM
same,GI50,[39],> 100 µM
same,TGI,[39],> 100 µM
same,GI50,[40],29.8 µM
same,TGI,[40],> 100 µM
same,GI50,[41],15.6 µM
same,TGI,[41],53 µM
same,GI50,[42],> 100 µM
same,TGI,[42],> 100 µM
same,GI50,[57],45.8 µM
same,TGI,[57],> 100 µM
same,GI50,[43],> 100 µM
same,TGI,[43],> 100 µM
same,GI50,[44],38.2 µM
same,TGI,[44],> 100 µM
same,GI50,[46],49.1 µM
same,TGI,[46],> 100 µM
same,GI50,[47],> 100 µM
same,TGI,[47],> 100 µM
same,GI50,[48],15.6 µM
same,TGI,[48],63 µM
same,GI50,[49],32.6 µM
same,TGI,[49],> 100 µM
same,GI50,[50],33.4 µM
same,TGI,[50],> 100 µM
same,GI50,[51],19.2 µM
same,TGI,[51],92.8 µM
same,GI50,[52],66.7 µM
same,TGI,[52],> 100 µM
